Measured values published in ChEMBL document CHEMBL5620416, “Design, synthesis and development of a dual inhibitor of Topoisomerase 1 and poly (ADP-ribose) polymerase 1 for efficient killing of cancer cells” (Eur J Med Chem, 2023).
The source made the active and inactive calls. No cut-off for these calls is given here.

Columns and labels:
HCT-116 [1] = assay: Induction of cell cycle arrest in human HCT-116 cells incubated for 24 to 48 hrs by PI staining based flow cytometry analysis; assay type: functional; conditions: dose 5-20 µM, time 24-48 hrs
[2] = Stability in human plasma incubated for 2 hrs by HPLC analysis; assay type: ADME, cell-free; conditions: read-out: Stability
HCT-116 [3] = assay: Induction of DNA double stranded break in human HCT-116 cells assessed as increase in 53BP1 level at 20 uM after 4 to 8 hrs by immunofluorescence assay; assay type: functional, cell-based; conditions: time 4-8 hrs
HCT-116 [4] = assay: Induction of cell cycle arrest in human HCT-116 cells assessed as accumulation of cells at S phase at 20 uM incubated for 48 hrs by PI staining based flow cytometry analysis (reference value: 17%); assay type: functional
HCT-116 [5] = assay: Induction of PARylation in human HCT-116 cells at 20 uM incubated for 2 to 8 hrs by Western blotting analysis; assay type: functional, cell-based; conditions: time 2-8 hrs
HCT-116 [6] = assay: Induction of cell cycle arrest in human HCT-116 cells assessed as accumulation of cells at S phase at 5 uM incubated for 48 hrs by PI staining based flow cytometry analysis (reference value: 17%); assay type: functional
HCT-116 [7] = assay: Induction of PARylation in human HCT-116 cells at 1 uM incubated for 4 hrs by Western blotting analysis; assay type: functional, cell-based
[8] = biological target: T1, DNA topoisomerase 1 (Homo sapiens) (UniProt P11387); assay: Inhibition of recombinant human Top1 assessed as reduction in plasmid relaxation at 10 to 20 uM using pUC19 plasmid DNA as substrate measured upto 30 mins by ethidium bromide staining based assay; conditions: dose 10-20 µM
T1 sequence (whole entry): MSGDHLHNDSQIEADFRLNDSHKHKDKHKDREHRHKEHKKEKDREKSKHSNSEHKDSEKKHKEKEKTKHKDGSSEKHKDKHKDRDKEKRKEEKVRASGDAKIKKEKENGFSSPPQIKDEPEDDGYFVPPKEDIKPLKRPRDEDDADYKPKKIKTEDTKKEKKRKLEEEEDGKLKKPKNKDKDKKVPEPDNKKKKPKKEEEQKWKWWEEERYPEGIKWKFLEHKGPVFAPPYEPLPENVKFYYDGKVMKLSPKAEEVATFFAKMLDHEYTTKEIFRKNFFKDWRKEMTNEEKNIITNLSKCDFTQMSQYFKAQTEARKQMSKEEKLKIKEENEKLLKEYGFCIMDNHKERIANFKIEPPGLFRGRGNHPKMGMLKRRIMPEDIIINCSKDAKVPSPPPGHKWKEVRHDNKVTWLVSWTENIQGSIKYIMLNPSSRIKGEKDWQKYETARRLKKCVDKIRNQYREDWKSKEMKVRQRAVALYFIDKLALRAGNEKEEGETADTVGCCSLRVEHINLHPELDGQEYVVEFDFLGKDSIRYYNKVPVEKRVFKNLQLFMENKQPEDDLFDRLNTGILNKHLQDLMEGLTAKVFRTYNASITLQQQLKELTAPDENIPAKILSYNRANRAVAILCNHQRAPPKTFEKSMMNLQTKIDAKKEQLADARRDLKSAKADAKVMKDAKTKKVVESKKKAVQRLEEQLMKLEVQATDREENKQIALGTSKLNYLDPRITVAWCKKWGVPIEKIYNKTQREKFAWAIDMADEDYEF

[9] = test system: DNA topoisomerase 1/Deoxyribonucleic acid (Homo sapiens); assay: Induction of TOP1-DNA covalent complex stabilization in human HCT-116 cells after 2 to 8 hrs by immunofluorescence microscopic assay; assay type: cell-based; conditions: dose 20.0 µM, time 2-8 hrs
HCT-116 [10] = assay: Induction of cell cycle arrest in human HCT-116 cells assessed as accumulation of cells at G2 phase at 5 uM incubated for 48 hrs by PI staining based flow cytometry analysis (reference value: 26%); assay type: functional
HCT-116 [11] = assay: Induction of cell cycle arrest in human HCT-116 cells assessed as accumulation of cells at S phase at 10 uM incubated for 48 hrs by PI staining based flow cytometry analysis (reference value: 17%); assay type: functional
HCT-116 [12] = assay: Induction of DNA double stranded break in human HCT-116 cells assessed as increase in gammaH2AX level at 20 uM after 4 to 8 hrs by immunofluorescence assay; assay type: functional, cell-based; conditions: time 4-8 hrs
PANC-1 [13] = assay: Cytotoxicity against human PANC-1 cells at less than 10 uM incubated for 7 to 10 days by crystal violet staining based assay; assay type: functional, cell-based; conditions: time 7-10 day
Calf thymus DNA [14] = assay: Displacement of EtBr from calf thymus pUC19 DNA preincubated with EtBr for 15 mins followed by compound addition and measured after 30 mins by […] staining based fluorescence assay; assay type: nucleic-acid assay; conditions: Bos taurus, dose 100-300 µM
HCT-116 [15] = assay: Induction of cell cycle arrest in human HCT-116 cells at 5 to 20 uM by PI staining based flow cytometry analysis; assay type: functional; conditions: dose 5-20 µM, time 24-48 hrs, TDE = time-dependent effect
[16] = biological target: Poly [ADP-ribose] polymerase 1 (Homo sapiens) (UniProt P09874); assay: Inhibition of recombinant human PARP1 at 20 uM incubated for 10 mins relative to control
[17] = biological target: Poly [ADP-ribose] polymerase 1 (Homo sapiens) (UniProt P09874); assay: Inhibition of recombinant human PARP1 incubated for 10 mins; conditions: dose 10-30 µM
PANC-1 [18] = assay: Cytotoxicity against human PANC-1 cells incubated for 72 hrs by MTT assay; assay type: functional, cell-based; conditions: PANC-1, 72 h
Calf thymus DNA [19] = assay: Binding affinity to calf thymus pUC19 DNA assessed as intercalating activity by measuring conformational change in DNA at 50 to 300 uM incubated for 30 mins by EtBr staining based agarose gel electrophoresis; assay type: nucleic-acid assay; conditions: Bos taurus, dose 50-300 µM
[20] = biological target: Poly [ADP-ribose] polymerase 1 (Homo sapiens) (UniProt P09874); assay: Inhibition of recombinant human PARP1 at 30 uM incubated for 10 mins relative to control
HCT-116 [21] = assay: Cytotoxicity against human HCT-116 cells at less than 10 uM incubated for 7 to 10 days by crystal violet staining based assay; assay type: functional, cell-based; conditions: time 7-10 day
[22] = test system: DNA topoisomerase 1/Deoxyribonucleic acid (Homo sapiens); assay: Induction of TOP1-DNA covalent complex stabilization in human HCT-116 cells after 2 to 6 hrs by RADAR assay; assay type: cell-based; conditions: dose 10-20 µM, time 2-6 hrs
[23] = test system: DNA topoisomerase 1/Deoxyribonucleic acid (Homo sapiens); assay: Induction of TOP1-DNA covalent complex stabilization in human HCT-116 cells at 20 uM by immunofluorescence microscopic assay; assay type: cell-based; conditions: time 2-8 hrs, TDE = time-dependent effect
MIA PaCa-2 = assay: Cytotoxicity against human MIA PaCa-2 cells at less than 10 uM incubated for 7 to 10 days by crystal violet staining based assay; assay type: functional, cell-based; conditions: time 7-10 day
[24] = test system: DNA topoisomerase 1/Deoxyribonucleic acid (Homo sapiens); assay: Induction of TOP1-DNA covalent complex stabilization in human HCT-116 cells at 10 to 20 uM by RADAR assay; assay type: cell-based; conditions: dose 10-20 µM, time 2-6 hrs, TDE = time-dependent effect
HCT-116 [25] = assay: Cytotoxicity against human HCT-116 cells incubated for 72 hrs by MTT assay; assay type: functional, cell-based; conditions: HCT-116, 72 h
HCT-116 [26] = assay: Induction of cell cycle arrest in human HCT-116 cells assessed as accumulation of cells at Sub-G1 phase at 5 uM incubated for 48 hrs by PI staining based flow cytometry analysis (reference value: 2.7 +/- 0.4%); assay type: functional
HCT-116 [27] = assay: Induction of cell cycle arrest in human HCT-116 cells assessed as accumulation of cells at Sub-G1 phase at 20 uM incubated for 24 hrs by PI staining based flow cytometry analysis (reference value: 1.1 +/- 0.1%); assay type: functional

Chain of Poly [ADP-ribose] polymerase 1 (Homo sapiens) (P09874 whole entry): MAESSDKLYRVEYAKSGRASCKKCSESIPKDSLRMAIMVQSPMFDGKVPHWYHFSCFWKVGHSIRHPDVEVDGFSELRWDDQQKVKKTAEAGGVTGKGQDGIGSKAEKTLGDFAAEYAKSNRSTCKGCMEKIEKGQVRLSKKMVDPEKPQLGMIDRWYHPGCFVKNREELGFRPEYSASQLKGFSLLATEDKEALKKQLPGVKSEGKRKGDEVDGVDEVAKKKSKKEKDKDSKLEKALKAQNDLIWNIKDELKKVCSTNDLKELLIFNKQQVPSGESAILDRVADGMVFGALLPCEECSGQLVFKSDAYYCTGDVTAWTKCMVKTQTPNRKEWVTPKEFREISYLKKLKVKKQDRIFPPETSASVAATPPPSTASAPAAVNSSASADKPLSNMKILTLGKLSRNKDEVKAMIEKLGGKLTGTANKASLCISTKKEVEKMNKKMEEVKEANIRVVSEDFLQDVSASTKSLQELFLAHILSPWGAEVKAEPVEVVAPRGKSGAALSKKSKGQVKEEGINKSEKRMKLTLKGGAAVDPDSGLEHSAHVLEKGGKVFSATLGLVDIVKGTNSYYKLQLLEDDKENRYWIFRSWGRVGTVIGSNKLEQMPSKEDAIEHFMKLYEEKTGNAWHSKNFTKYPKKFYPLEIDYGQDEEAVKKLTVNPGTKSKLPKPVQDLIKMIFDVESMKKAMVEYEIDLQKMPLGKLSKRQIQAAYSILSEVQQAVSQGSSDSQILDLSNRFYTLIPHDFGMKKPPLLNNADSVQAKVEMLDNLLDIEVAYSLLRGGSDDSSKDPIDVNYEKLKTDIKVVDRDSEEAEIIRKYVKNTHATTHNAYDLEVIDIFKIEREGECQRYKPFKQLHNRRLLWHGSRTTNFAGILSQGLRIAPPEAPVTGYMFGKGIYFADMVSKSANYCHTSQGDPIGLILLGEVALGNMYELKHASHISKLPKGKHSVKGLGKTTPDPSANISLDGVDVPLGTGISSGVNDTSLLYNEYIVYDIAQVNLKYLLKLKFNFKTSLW

O=C1c2cccc3cccc(c23)C(=O)N1CCSc1nnc(Cn2nc(Cc3ccc(F)cc3)c3ccccc3c2=O)o1
Activity (HCT-116 [1]): Dose-Dependent Effect | remaining at 2 h [2]: > 70% | Activity (HCT-116 [3]): Active | Activity (HCT-116 [4]): 39% | Activity (HCT-116 [5]): Active | Activity (HCT-116 [6]): 30% | Activity (HCT-116 [7]): Active | inhibition [8]: Active | Activity [9]: Dose-Dependent Effect | Activity (HCT-116 [10]): 29% | Activity (HCT-116 [11]): 33% | Activity (HCT-116 [12]): Active | Activity (PANC-1 [13]): Active | Activity (Calf thymus DNA [14]): Dose-Dependent Effect | Activity (HCT-116 [15]): Tde | inhibition [16]: 25% | inhibition [17]: Dose-Dependent Effect | IC50 (PANC-1 [18]): 4 µM | Activity (Calf thymus DNA [19]): inactive | inhibition [20]: 35% | Activity (HCT-116 [21]): Active | Activity [22]: Dose-Dependent Effect | Activity [23]: Tde | Activity (MIA PaCa-2): Active | Activity [24]: Tde | IC50 (HCT-116 [25]): 4 µM | Activity (HCT-116 [26]): 35% | Activity (HCT-116 [27]): 39.1%
